Source: patent publication US20260130933A1, “PHARMACEUTICAL COMPOSITION FOR PREVENTION OR TREATMENT OF NEPHROPATHY AND/OR DIABETES MELLITUS, COMPRISING ENAVOGLIFLOZIN” (DAEWOONG PHARMACEUTICAL CO., LTD., priority 2022, published 2026)

Assay: Example 3: phase 3 trial, enavogliflozin 0.3 mg vs dapagliflozin 10 mg once a day for 24 weeks added to metformin and gemigliptin in patients with type 2 diabetes (same endpoints, rescue drug)
Type: in vivo, human
Description: 1) when Metformin (≥1,000 mg/Day) was Administered at a Constant Dose for at Least 8 Weeks Prior to Pre-Visit (Pre-Screening) • Metformin (≥1,000 mg/day) and gemigliptin (50 mg/day) were co-administered during the 8-week stabilization period. […] 4) when Metformin (≥1,000 mg/Day) and Gemigliptin (50 mg/Day) were Co-Administered at Constant Doses for at Least 8 Weeks Prior to Pre-Visit (Prescreening) • Without a separate stabilization period, Pre-visit (pre-screening) was Visit 1 (screening).
Subjects who met the inclusion/exclusion criteria continued to receive metformin and gemigliptin while receiving a placebo of the clinical trial drug in a single-blind (subject-blinded) state for a 2-week run-in period.
Here, the randomized subjects were stratified according to the administration therapy (co-administration with two or less agents (one or two agents) or three or more agents) of a conventional hypoglycemic agent (before washout of another hypoglycemic agent) within 24 weeks prior to obtaining written informed consent and by an HbA1c value (<8% or ≥8%) at Visit 1 (screening) measured in the central laboratory.
The randomized subjects were administered two tablets of the clinical trial drug corresponding to each administration group once a day, and then visited the institution at weeks 6, 12, 18, and 24 during the 24-week administration period to conduct efficacy and safety assessments. In addition, during the clinical trial period, they were instructed to exercise regularly and control their diet without changing their daily life patterns.
• 1) Change in HbA1c at week 24 after administration of clinical trial drug compared to Visit 2 (randomization)
• 1) Change in HbA1c at each time point of weeks 6, 12, and 18 after administration of clinical trial drug compared to Visit 2 (randomization) • 2) Change in FPG at each time point of weeks 6, 12, 18, and 24 after administration of clinical trial drug compared to Visit 2 (randomization) • 3) Proportion of subjects achieving HbA1c<7% at each time point of weeks 6, 12, 18, and 24 after administration of clinical trial drug • 4) Proportion of subjects achieving HbA1c<6.5% at each time point of weeks 6, 12, 18, and 24 after administration of clinical trial drug • 5) Proportion of subjects achieving therapeutic response (HbA1c change (HbA1c at Visit 2—HbA1c at each evaluation time point)>0.5% or HbA1c<7% at each evaluation time point compared to Visit 2 (randomization)) at each time point of weeks 6, 12, 18, and 24 after administration of clinical trial drug • 6) Proportion of subjects achieving therapeutic response (HbA1c change (HbA1c at Visit 2—HbA1c at each evaluation time point)>0.7% or HbA1c<7% at each evaluation time point compared to Visit 2 (randomization)) at each time point of weeks 6, 12, 18, and 24 after administration of clinical trial drug • 7) Proportion of subjects achieving therapeutic response (HbA1c change (HbA1c at Visit 2—HbA1c at each evaluation time point)>1% or HbA1c<7% at each evaluation time point compared to Visit 2 (randomization)) at each time point of weeks 6, 12, 18, and 24 after administration of clinical trial drug

[1] = week 12, per-protocol set, enavogliflozin 0.3 mg, dapagliflozin 10 mg
[2] = week 18, modified per-protocol set 1, enavogliflozin 0.3 mg, dapagliflozin 10 mg
[3] = week 18, modified per-protocol set 2
[4] = week 18, modified per-protocol set 2, enavogliflozin 0.3 mg, dapagliflozin 10 mg
[5] = week 18, per-protocol set, enavogliflozin 0.3 mg, dapagliflozin 10 mg

CCOc1ccc(Cc2cc([C@@H]3O[C@H](CO)[C@@H](O)[C@H](O)[C@H]3O)ccc2Cl)cc1 [Dapagliflozin, reference compound]
Subjects achieving HbA1c target of <7%, % [1]: 63.41%
body weight, Median [1]: 63.20 kg
Subjects achieving therapeutic glycemic response 1, % (week 12, per-protocol set, response 1 = HbA1c change >0.5% or HbA1c <7%, enavogliflozin 0.3 mg, dapagliflozin 10 mg): 89.43%
Subjects achieving therapeutic glycemic response 2, % (week 12, per-protocol set, response 2 = HbA1c change >0.7% or HbA1c <7%, enavogliflozin 0.3 mg, dapagliflozin 10 mg): 82.11%
Subjects achieving therapeutic glycemic response 3, % (week 12, per-protocol set, response 3 = HbA1c change >1% or HbA1c <7%, enavogliflozin 0.3 mg, dapagliflozin 10 mg): 73.98%
FPG change from baseline, LS mean (SE) (week 18): −23.55(1.59) mg/dL
HDL-C change from baseline, LS mean (SE) (week 18): 3.42(0.62) mg/dL
HOMA-IR change from baseline, LS mean (SE) (week 18): −1.01(0.11)
HOMA-β change from baseline, LS mean (SE) (week 18): 4.49(2.22)
HbA1c change from baseline, LS mean (SE) (week 18): −0.75(0.04) % p
LDL-C change from baseline, LS mean (SE) (week 18): 1.38(1.59) mg/dL
UACR change from baseline, LS mean (SE) (week 18): −8.90(3.79) g/kg
UGCR change from baseline, LS mean (SE) (week 18): 45.40(2.27) mg/mg
adiponectin change from baseline, LS mean (SE) (week 18): 0.36(0.32) μg/mL
body weight change from baseline, LS mean (SE) (week 18): −3.01(0.23) kg
diastolic blood pressure change from baseline, LS mean (SE) (week 18): −2.42(0.68) mmHg
fasting C-peptide change from baseline, LS mean (SE) (week 18): −0.06(0.02) ng/mL
leptin change from baseline, LS mean (SE) (week 18): −1.06(0.51) ng/ml
systolic blood pressure change from baseline, LS mean (SE) (week 18): −5.16(0.88) mmHg
total cholesterol change from baseline, LS mean (SE) (week 18): 3.66(1.88) mg/dL
triglyceride change from baseline, LS mean (SE) (week 18): −12.39(4.34) mg/dL
Change from baseline in HDL-C, ANCOVA LS mean [2]: 3.42 mg/dL
Change from baseline in HDL-C, Mean [2]: 3.57 mg/dL
Change from baseline in HDL-C, Median [2]: 3.00 mg/dL
Change from baseline in LDL-C, ANCOVA LS mean [2]: 1.38 mg/dL
Change from baseline in LDL-C, Mean [2]: 0.93 mg/dL
Change from baseline in LDL-C, Median [2]: 1.50 mg/dL
Change from baseline in total cholesterol, ANCOVA LS mean [2]: 3.66 mg/dL
Change from baseline in total cholesterol, Mean [2]: 2.51 mg/dL
Change from baseline in total cholesterol, Median [2]: 1.00 mg/dL
Change from baseline in triglycerides, ANCOVA LS mean [2]: -12.39 mg/dL
Change from baseline in triglycerides, Mean [2]: -17.31 mg/dL
Change from baseline in triglycerides, Median [2]: -8.50 mg/dL
Fasting HDL-C, Mean [2]: 50.99 mg/dL
Fasting HDL-C, Median [2]: 51.00 mg/dL
Fasting LDL-C, Mean [2]: 78.33 mg/dL
Fasting LDL-C, Median [2]: 73.00 mg/dL
Fasting total cholesterol, Mean [2]: 146.31 mg/dL
Fasting triglycerides, Mean [2]: 115.18 mg/dL
Fasting triglycerides, Median [2]: 103.00 mg/dL
fasting Total cholesterol, Median [2]: 141.00 mg/dL
Change from baseline in diastolic blood pressure, ANCOVA LS mean [3]: −2.42 mmHg
Change from baseline in diastolic blood pressure, Mean [3]: −2.12 mmHg
Change from baseline in diastolic blood pressure, Median [3]: −2.00 mmHg
Diastolic blood pressure, Mean [3]: 71.75 mmHg
Diastolic blood pressure, Median [3]: 71.00 mmHg
Change from baseline in systolic blood pressure, ANCOVA LS mean [4]: −5.16 mmHg
Change from baseline in systolic blood pressure, Mean [4]: −4.63 mmHg
Change from baseline in systolic blood pressure, Median [4]: −4.00 mmHg
Systolic blood pressure, Mean [4]: 119.31 mmHg
Systolic blood pressure, Median [4]: 118.00 mmHg
Adiponectin, Mean (week 18, per-protocol set): 6.65 µg/mL
Adiponectin, Median (week 18, per-protocol set): 6.21 µg/mL
Change from baseline in HOMA-IR, ANCOVA LS mean (week 18, per-protocol set): −1.01
Change from baseline in HOMA-IR, Mean (week 18, per-protocol set): −1.00
Change from baseline in HOMA-IR, Median (week 18, per-protocol set): −0.75
Change from baseline in HOMA-β, ANCOVA LS mean (week 18, per-protocol set): 4.49
Change from baseline in HOMA-β, Mean (week 18, per-protocol set): 5.32
Change from baseline in HOMA-β, Median (week 18, per-protocol set): 2.20
Change from baseline in UACR, ANCOVA LS mean (week 18, per-protocol set): -8.90 g/kg
Change from baseline in UACR, Mean (week 18, per-protocol set): -8.84 g/kg
Change from baseline in UACR, Median (week 18, per-protocol set): 0.20 g/kg
Change from baseline in UGCR, ANCOVA LS mean (week 18, per-protocol set): 45.40 mg/mg
Change from baseline in UGCR, Mean (week 18, per-protocol set): 43.29 mg/mg
Change from baseline in UGCR, Median (week 18, per-protocol set): 41.28 mg/mg
Change from baseline in adiponectin, ANCOVA LS mean (week 18, per-protocol set): 0.36 µg/mL
Change from baseline in adiponectin, Mean (week 18, per-protocol set): 0.30 µg/mL
Change from baseline in adiponectin, Median (week 18, per-protocol set): 0.36 µg/mL
Change from baseline in leptin, ANCOVA LS mean (week 18, per-protocol set): -1.06 ng/mL
Change from baseline in leptin, Mean (week 18, per-protocol set): -1.36 ng/mL
Change from baseline in leptin, Median (week 18, per-protocol set): -0.75 ng/mL
HOMA-IR (insulin resistance), Mean (week 18, per-protocol set): 1.85
HOMA-IR (insulin resistance), Median (week 18, per-protocol set): 1.53
HOMA-β (beta-cell function), Mean (week 18, per-protocol set): 45.79
HOMA-β (beta-cell function), Median (week 18, per-protocol set): 36.80
Leptin, Mean (week 18, per-protocol set): 9.52 ng/mL
Leptin, Median (week 18, per-protocol set): 7.80 ng/mL
UACR, Mean (week 18, per-protocol set): 25.86 g/kg
UACR, Median (week 18, per-protocol set): 10.20 g/kg
UGCR, Mean (week 18, per-protocol set): 44.82 mg/mg
UGCR, Median (week 18, per-protocol set): 42.32 mg/mg
Body weight, Mean [5]: 64.37 kg
Change from baseline in FPG, ANCOVA LS mean [5]: -23.55 mg/dL
Change from baseline in FPG, Mean [5]: -24.80 mg/dL
Change from baseline in FPG, Median [5]: -19.00 mg/dL
Change from baseline in HbA1c, ANCOVA LS mean [5]: −0.75 % p
Change from baseline in HbA1c, Mean [5]: −0.79 % p
Change from baseline in HbA1c, Median [5]: −0.72 % p
Change from baseline in body weight, ANCOVA LS mean [5]: -3.01 kg
Change from baseline in body weight, Mean [5]: -2.84 kg
Change from baseline in body weight, Median [5]: -2.70 kg
Change from baseline in fasting C-peptide, ANCOVA LS mean [5]: -0.06 ng/mL
Change from baseline in fasting C-peptide, Mean [5]: -0.06 ng/mL
Change from baseline in fasting C-peptide, Median [5]: -0.07 ng/mL
FPG, Mean [5]: 115.72 mg/dL
FPG, Median [5]: 114.00 mg/dL
Fasting C-peptide, Mean [5]: 0.63 ng/mL
Fasting C-peptide, Median [5]: 0.60 ng/mL
HbA1c, Mean [5]: 7.04%
HbA1c, Median [5]: 6.97%
Subjects achieving HbA1c target of <6.5%, (%) [5]: 12.20%
Subjects achieving HbA1c target of <7%, % [5]: 56.10%
